From doi:10.1101/2024.02.15.580468v1, “Morphing Cholinesterase Inhibitor Amiridine into Multipotent Drugs for the Treatment of Alzheimer’s Disease” (biorxiv, 2024) come the findings set out here.

Data set [1] is described as follows: in vitro. Also noted: MTT viability assay, undifferentiated SH-SY5Y cells. The conditions noted are these: human, undifferentiated sh-sy5y cells, read-out: SH-SY5Y IC50. On the procedure:
(§1) The cytotoxic profile of 5–7 was carried through the use of the MTT (3-(4,5-dimethylthiazol-2-yl)-2,5-diphenyltetrazolium bromide) assay on human neuroblastoma (SH-SY5Y) and hepatocellular carcinoma (HepG2) cell lines, following established protocols. The cytotoxicity was assessed on SH-SY5Y cells in undifferentiated and in differentiated form. The data obtained from the measurements on the undifferentiated SH-SY5Y and HepG2 cells are summarized in Table 1 for 5c-d, 7c and 7g, as well as for the reference compounds amiridine hydrochloride and THA. Additional data can be found in Supplementary Information (Table S2 and Fig. S1). The both cell lines were cultured according to ECACC recommended conditions and seeded into 96-well plates in 100 µL and density of 8000 per well. For evaluation of cytotoxicity of the differentiated form the SH-SY5Y cells also underwent 9-day differentiation protocol into mature neurons according to Riegerová et al .. The tested compounds were dissolved in DMSO (Sigma Aldrich) or in phosphate buffer saline (PBS, Sigma Aldrich) and subsequently in the growth medium - high glucose Dulbecco’s Modified Eagle’s medium (DMEM; Sigma-Aldrich, D6429). […] Then, the differentiated SH-SY5Y cells were treated with concentrations corresponding to IC50 values obtained from the cytotoxicity measurement using undifferentiated SH-SY5Y cells. Cells were exposed to a tested compound for 24 h. Then the medium was replaced by a medium containing 10 μM of MTT and cells were allowed to produce formazan for another approximately 3 h under surveillance. Thereafter, medium was aspirated and purple crystals of MTT formazan were dissolved in 100 μL DMSO under shaking. Cell viability was assessed spectrophotometrically by the amount of formazan produced. Absorbance was measured at 570 nm with 650 nm reference wavelength on Spark (Tecan Group Ltd, Switzerland). The IC50 value was then calculated from the control-subtracted triplicates using non-linear regression (four parameters) of GraphPad Prism 9 software. Final IC50 and SEM values were obtained as a mean of three independent measurements.

In data set [2] the target is T1, hBChE (human serum / plasmatic butyrylcholinesterase) (Homo sapiens, UniProt P06276).
T1 construct: gene BCHE; native enzyme from human plasma/serum, purchased from Sigma-Aldrich
T1 sequence (P06276 29-602): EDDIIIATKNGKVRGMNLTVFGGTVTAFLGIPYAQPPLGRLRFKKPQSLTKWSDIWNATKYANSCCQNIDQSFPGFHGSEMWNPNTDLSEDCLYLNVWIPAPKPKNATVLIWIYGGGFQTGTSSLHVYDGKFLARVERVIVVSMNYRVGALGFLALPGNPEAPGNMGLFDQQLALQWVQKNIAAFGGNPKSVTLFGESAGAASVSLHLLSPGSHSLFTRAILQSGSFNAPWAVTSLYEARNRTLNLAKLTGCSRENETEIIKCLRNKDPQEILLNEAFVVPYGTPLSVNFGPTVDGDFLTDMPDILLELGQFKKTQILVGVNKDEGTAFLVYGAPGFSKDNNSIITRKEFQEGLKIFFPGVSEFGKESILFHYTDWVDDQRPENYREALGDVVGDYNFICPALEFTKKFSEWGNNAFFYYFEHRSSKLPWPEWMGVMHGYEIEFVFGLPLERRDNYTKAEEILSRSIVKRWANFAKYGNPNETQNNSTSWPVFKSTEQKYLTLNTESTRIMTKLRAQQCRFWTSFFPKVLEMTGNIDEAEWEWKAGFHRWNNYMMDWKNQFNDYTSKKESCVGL
The experiment in a line: biochemical. Also noted: modified Ellman assay, cholinesterase activity, absorbance at 412 nm. On the procedure:
(§2) The inhibitory activities of 5–7 and all the reference compounds were determined using modified Ellman’s method against human recombinant AChE (hAChE, E.C. 3.1.1.7, purchased from Sigma-Aldrich, Prague, Czech Republic) and human plasmatic BChE (hBChE, E.C. 3.1.1.8, purchased from Sigma-Aldrich, Prague, Czech Republic). The results are expressed as IC50 (the concentration of the compound that is required to reduce 50% of cholinesterase activity). Other used compounds – phosphate buffer solution (PBS, pH = 7.4), 5,5’-dithio-bis(2-nitrobenzoic) acid (Ellman’s reagent, DTNB), acetylthiocholine (ATCh) and butyrylthiocholine (BTCh) were also commercially available and were purchased from Sigma-Aldrich (Prague, Czech Republic). During the measurement, 96-well microplates from polystyrene (ThermoFisher Scientific, Waltham, MA, USA) were used. The solutions of corresponding enzyme in PBS were prepared up to final activity 0.002 U/µL. The assay medium (100 µL) consisted of cholinesterase (10 µL), DTNB (20 µL of 0.01 M solution) and PBS (40 µL of 0.1 M solution). The solutions of the tested compounds (10 µL of different concentrations) were pre- incubated for 5 minutes in the assay medium and then solution of substrate (20 µL of 0.01 M ATCh or BTCh iodide solution) was added to initiate the reaction. The increase of absorbance was measured at 412 nm using Multimode microplate reader Synergy 2 (BioTek Inc., Winooski, VT, USA). For the calculation of the resulting measured activity (the percentage of inhibition I) following formula was used: [drawing 1] where ΔAi indicates absorbance change provided by adequate enzyme exposed to corresponding inhibitor and ΔA0 indicates absorbance change when a solution of PBS was added instead of a solution of inhibitor. Software Microsoft Excel (Redmont, WA, USA) and GraphPad Prism version 5.02 for Windows (GraphPad Software, San Diego, CA, USA) were used for the statistical data evaluation. ChEs are enzymes responsible for the hydrolysis and metabolism of various endogenous and exogenous substrates, that are broadly studied in association with disease conditions like myasthenia gravis or AD. The primary attention in the development of AD drugs has been paid to AChE inhibitors. Nevertheless, there is growing interest in nonselective or BChE-selective inhibitors due to the compensatory role of BChE when AChE levels are depleted during the progression of AD [23]. Selective BChE inhibitors may be beneficial for patients in moderate-to-severe stages of AD [23, 24]. […] Accordingly, we assessed the inhibition activities of these novel compounds against human recombinant AChE (hAChE) and human serum BChE (hBChE) following a modified spectrophotometric protocol developed by Ellman et al.. […] Complete data are available in the Supplementary Information (Table S1), including the inhibition percentages for all derivatives. Amiridine hydrochloride (amiridine.HCl) and tacrine (THA) were used as reference compounds. […] Only a superficial structure-activity relationship for AChE inhibition can be drawn from the obtained data. […] The presence of any substituent on the benzothiazole core enhanced anti-AChE activity, with the best-tolerated position for the substituent being 6 for derivatives with halogen atoms (7b-d with bromine or 7g-h with [compound left out]. h

The target of data set [3] is T2, hAChE (human recombinant acetylcholinesterase) (Homo sapiens, UniProt P22303).
T2 construct: gene ACHE; recombinant enzyme, purchased from Sigma-Aldrich
T2 sequence (P22303 32-614): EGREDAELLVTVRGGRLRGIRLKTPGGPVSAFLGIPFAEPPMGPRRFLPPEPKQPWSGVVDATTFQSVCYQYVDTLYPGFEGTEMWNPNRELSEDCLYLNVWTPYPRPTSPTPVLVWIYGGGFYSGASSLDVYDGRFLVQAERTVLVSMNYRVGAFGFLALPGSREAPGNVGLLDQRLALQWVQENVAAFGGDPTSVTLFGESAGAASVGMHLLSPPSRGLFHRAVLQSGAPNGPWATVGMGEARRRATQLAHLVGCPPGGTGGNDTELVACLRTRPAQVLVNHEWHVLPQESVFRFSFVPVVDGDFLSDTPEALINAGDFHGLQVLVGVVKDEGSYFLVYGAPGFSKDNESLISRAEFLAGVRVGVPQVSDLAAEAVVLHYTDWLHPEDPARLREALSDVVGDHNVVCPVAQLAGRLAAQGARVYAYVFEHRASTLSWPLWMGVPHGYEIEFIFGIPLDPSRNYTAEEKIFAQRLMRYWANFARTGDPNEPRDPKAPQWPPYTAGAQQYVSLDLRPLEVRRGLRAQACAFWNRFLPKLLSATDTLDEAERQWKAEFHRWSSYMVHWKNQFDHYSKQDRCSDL
Kind of data set: biochemical. More on the design: modified Ellman assay, cholinesterase activity, absorbance at 412 nm. On the procedure:
as §2

A short description of data set [4]: in vitro. More on the design: PAMPA blood-brain barrier permeability, effective permeability Pe. The conditions noted are these: PAMPA-BBB Pe. The source says: page 5 / Table S2. Cytotoxicity profiles of 5–7 on SH-SY5Y cell line and predictions to BBB penetration by PAMPA results. / Pe (10^-6 cm.s^-1)
In general terms: In PAMPA a lipid-coated filter parts donor from acceptor wells.

For data set [5], the target named is T3, recombinant human GluN1/GluN2B NMDA receptor (GluN1-4a/GluN2B) (Homo sapiens, UniProt Q05586+Q13224).
T3 construct: gene GRIN1; GluN1-4a and GluN2B co-expressed with GFP in HEK293 cells
T3 sequence (Q13224 27-1484, other chains not shown): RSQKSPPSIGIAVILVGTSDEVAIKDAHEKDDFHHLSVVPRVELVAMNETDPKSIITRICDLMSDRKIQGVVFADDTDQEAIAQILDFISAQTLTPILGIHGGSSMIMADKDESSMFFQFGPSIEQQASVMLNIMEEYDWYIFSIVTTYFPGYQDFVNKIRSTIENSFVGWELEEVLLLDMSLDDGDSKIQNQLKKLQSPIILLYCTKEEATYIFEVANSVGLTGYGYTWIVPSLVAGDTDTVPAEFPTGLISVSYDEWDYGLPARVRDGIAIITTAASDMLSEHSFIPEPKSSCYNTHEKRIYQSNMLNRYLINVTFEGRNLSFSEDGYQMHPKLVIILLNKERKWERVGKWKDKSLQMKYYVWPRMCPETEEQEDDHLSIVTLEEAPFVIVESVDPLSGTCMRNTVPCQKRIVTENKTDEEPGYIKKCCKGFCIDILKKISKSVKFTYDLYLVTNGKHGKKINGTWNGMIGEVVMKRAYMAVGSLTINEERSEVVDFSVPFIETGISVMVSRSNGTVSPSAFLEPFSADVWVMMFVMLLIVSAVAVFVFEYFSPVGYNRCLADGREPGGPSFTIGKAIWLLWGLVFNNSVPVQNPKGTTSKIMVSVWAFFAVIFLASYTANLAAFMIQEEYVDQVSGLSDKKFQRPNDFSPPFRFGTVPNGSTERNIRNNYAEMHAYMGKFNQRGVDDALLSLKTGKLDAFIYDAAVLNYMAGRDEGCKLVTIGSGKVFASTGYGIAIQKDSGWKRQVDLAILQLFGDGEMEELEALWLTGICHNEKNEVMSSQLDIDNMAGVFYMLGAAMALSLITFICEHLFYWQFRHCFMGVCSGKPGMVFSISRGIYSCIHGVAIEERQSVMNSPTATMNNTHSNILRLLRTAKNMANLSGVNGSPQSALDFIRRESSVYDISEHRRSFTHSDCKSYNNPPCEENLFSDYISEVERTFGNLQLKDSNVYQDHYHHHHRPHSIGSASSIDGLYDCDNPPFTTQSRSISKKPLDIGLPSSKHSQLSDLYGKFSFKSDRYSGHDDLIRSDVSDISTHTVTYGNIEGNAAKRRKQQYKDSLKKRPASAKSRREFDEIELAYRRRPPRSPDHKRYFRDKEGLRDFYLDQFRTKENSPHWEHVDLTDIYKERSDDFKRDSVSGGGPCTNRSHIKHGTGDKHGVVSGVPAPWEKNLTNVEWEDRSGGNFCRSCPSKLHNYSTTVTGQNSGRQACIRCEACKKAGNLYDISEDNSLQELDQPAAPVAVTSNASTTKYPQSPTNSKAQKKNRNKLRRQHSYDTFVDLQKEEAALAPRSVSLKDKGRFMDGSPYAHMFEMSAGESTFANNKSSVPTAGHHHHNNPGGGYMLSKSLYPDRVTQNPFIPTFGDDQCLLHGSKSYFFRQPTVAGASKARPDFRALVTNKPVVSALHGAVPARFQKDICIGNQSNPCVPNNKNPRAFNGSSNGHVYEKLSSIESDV
Kind of data set: whole-cell patch clamp, HEK293. The data set is classed as cell-based. Conditions: -60 mV, 1 mM L-glutamate, 100 µM glycine, pH 7.3, steady state; voltage-dependent. The text has this:
whole-cell patch clamp, HEK293 on recombinant human GluN1/GluN2B NMDA receptor (GluN1-4a/GluN2B)

A short description of data set [6]: in vitro. Also noted: MTT viability assay, HepG2 cells. The conditions noted are these: human, hepg2 cells; read-out: HepG2 IC50. The procedure:
as §1

A short description of data set [7]: in vitro. Also noted: PAMPA blood-brain barrier permeability, effective permeability Pe. The conditions noted are these: PAMPA-BBB Pe. The text has this: page 4 / Table S1. Inhibition activities of 5–7 and reference compounds (amiridine hydrochloride and THA). hAChE ± SEM^a hBChE ± SEM^a / Pe (10^-6 cm.s^-1)
This is another data set of the same source.

Molecules are shown by their SMILES. Like-named read-outs stand apart in the source and are kept apart here.

The inhibition is the change of the read-out against control, counted positive when it falls. Broadly, the Papp is the rate of passage across a membrane or cell layer, normalised by area and donor concentration. Higher therefore signals ready permeation. `O=C(CNc1nc2ccc(OC(F)(F)F)cc2s1)Nc1c2c(nc3c1CCC3)CCCC2` [7m, N-{1H,2H,3H,5H,6H,7H,8H-cyclopenta[b]quinolin-9-yl}-2-{[6-(trifluoromethoxy)-1,3-benzothiazol-2-yl]amino}acetamide]: the CC50 at 24 h in “in vitro [1]” was 29.5 ± 2.3 µM; in the data set “in vitro [6]” it was ≥ 200 µM. Further, the inhibition at 1 µM is 1.5 ± 0.64% in data set [2] and 13.3 ± 0.71% in data set [3]. For the same compound, the Papp in the data set “in vitro [4]” worked out at 2.54 ± 0.42 ×10⁻⁶ cm/s. Besides, the “RI (% inhibition at 30 μM)” value in data set [5] stood at 63.0 ± 2.6%.

On to `O=C(CNC12CC3CC(CC(C3)C1)C2)Nc1c2c(nc3c1CCC3)CCCC2` [5a], for which the CC50 at 24 h is 74 ± 2.8 µM in “in vitro [1]” and 67.9 ± 1.12 µM in the data set “in vitro [6]”. Besides, the inhibition at 1 µM is 14 ± 1.75% in data set [2] and 2.83 ± 0.49% in data set [3]. This compound gave a Papp in “in vitro [7]” of 23.4 ± 1.86 ×10⁻⁶ cm/s.
